Experiments:
[1] = biological target: T1, ATP-binding cassette sub-family C member 2 (Rattus norvegicus, UniProt Q63120); experiment: TP_TRANSPORTER: biliary excretion in SD rat; format: functional, organism-based, Sprague-Dawley, Bile; settings: in vivo
[2] = biological target: T1, ATP-binding cassette sub-family C member 2; experiment: TP_TRANSPORTER: biliary excretion in EHBR rat; format: functional, organism-based, Bile; settings: in vivo
[3] = biological target: T2, Solute carrier organic anion transporter family member 1A1 (Rattus norvegicus, UniProt P46720); experiment: TP_TRANSPORTER: uptake in Oatp1-expressing COS-7 cells; format: functional, cell-based; settings: monkey
T2 sequence (P46720 whole entry): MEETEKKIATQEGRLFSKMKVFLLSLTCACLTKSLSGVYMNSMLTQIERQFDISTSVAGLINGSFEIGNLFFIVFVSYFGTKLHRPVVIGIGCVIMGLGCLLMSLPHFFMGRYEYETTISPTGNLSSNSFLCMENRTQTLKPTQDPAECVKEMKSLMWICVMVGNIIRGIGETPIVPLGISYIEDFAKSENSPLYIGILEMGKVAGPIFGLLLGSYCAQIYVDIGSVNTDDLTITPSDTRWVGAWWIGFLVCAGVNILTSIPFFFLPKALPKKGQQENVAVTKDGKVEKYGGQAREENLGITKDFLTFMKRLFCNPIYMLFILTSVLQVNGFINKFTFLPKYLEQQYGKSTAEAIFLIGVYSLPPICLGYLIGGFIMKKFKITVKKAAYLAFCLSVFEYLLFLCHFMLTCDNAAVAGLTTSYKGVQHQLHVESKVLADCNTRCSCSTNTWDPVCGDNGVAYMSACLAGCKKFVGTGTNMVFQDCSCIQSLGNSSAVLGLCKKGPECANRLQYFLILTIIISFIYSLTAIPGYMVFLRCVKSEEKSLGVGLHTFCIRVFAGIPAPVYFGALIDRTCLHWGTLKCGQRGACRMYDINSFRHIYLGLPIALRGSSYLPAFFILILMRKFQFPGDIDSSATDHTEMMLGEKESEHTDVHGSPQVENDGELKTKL

[4] = biological target: T3, Hepatic sodium/bile acid cotransporter (Rattus norvegicus, UniProt P26435); experiment: TP_TRANSPORTER: uptake in Ntcp-expressing COS-7 cells; format: functional, cell-based; settings: monkey
T3 sequence (P26435 whole entry): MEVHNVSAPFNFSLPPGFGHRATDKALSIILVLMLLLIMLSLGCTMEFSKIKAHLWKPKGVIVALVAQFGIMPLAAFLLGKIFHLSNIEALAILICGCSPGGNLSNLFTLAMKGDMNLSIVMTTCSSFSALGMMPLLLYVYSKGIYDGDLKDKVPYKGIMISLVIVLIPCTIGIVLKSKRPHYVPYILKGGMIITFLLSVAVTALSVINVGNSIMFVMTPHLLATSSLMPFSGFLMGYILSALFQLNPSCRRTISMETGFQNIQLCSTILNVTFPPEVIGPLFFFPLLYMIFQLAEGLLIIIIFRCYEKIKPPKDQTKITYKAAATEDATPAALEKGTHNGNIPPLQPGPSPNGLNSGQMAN

T1 sequence (Q63120 whole entry): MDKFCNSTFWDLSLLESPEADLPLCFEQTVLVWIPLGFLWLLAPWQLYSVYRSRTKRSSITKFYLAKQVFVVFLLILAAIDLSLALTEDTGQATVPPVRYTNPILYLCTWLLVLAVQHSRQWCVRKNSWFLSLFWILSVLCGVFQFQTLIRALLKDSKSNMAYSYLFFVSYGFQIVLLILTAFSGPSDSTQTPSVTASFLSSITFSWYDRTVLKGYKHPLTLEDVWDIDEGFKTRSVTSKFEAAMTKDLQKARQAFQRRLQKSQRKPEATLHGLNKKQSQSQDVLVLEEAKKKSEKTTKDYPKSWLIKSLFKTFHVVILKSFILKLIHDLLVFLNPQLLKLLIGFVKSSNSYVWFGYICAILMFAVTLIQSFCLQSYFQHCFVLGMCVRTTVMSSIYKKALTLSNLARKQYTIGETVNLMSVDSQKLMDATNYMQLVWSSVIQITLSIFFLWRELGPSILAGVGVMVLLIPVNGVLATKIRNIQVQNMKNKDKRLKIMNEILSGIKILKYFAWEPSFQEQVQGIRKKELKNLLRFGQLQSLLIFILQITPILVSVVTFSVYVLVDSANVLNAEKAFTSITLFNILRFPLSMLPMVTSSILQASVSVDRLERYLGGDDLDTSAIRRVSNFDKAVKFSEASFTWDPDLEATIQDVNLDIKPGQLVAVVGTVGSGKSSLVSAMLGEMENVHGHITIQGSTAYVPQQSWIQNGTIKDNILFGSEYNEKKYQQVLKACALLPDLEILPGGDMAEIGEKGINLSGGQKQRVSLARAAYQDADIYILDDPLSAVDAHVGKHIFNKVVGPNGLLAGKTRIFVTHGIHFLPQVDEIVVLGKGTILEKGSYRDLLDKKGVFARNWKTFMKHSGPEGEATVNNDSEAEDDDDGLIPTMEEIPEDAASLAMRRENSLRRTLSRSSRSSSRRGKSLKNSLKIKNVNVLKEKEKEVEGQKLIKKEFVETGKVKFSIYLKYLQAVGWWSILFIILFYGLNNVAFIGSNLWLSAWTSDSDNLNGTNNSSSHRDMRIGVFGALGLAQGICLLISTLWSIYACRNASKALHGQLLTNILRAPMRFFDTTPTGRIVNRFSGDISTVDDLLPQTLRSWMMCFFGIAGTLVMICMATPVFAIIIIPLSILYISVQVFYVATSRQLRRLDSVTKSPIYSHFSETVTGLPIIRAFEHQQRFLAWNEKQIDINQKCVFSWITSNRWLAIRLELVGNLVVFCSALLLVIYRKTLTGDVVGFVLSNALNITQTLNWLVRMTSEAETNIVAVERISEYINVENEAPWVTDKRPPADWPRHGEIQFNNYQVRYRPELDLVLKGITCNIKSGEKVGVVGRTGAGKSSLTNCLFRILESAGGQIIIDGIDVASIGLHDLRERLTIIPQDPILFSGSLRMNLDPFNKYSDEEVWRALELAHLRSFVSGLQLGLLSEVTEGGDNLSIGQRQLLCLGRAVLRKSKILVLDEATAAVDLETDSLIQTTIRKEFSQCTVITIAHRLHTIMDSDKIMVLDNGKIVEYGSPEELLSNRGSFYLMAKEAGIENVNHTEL

With `COc1ccc2c(c1)c(CC(=O)O[C@@H]1O[C@H](C(=O)O)[C@@H](O)[C@H](O)[C@H]1O)c(C)n2C(=O)c1ccc(Cl)cc1` [INDOMETHACIN GLUCURONIDE] as the compound, how does the Activity [1] read?
The Activity was “substrate [+]”.

What about the Activity [2] of the same compound?
Its Activity is “substrate [+]”.

`COc1ccc2c(c1)c(CC(=O)O)c(C)n2C(=O)c1ccc(Cl)cc1` [INDOMETHACIN] was tested. Which Activity [3] did it give?
Its Activity is “is not a substrate [-]”.

What about the Activity [1] of the same compound?
Its Activity is “is not a substrate [-]”.

And the Activity [2]?
The Activity was “is not a substrate [-]”.

And the Activity [4]?
Its Activity is “is not a substrate [-]”.
